Patent US20260115185A1, “QUINOLINE DERIVATIVES WHICH ACT AS KAPPA-OPIOID RECEPTOR ANTAGONISTS” (The Scripps Research Institute, priority 2023, published 2026)

Assays:
[1] = target: T1, kappa opioid receptor (KOR) (Homo sapiens, UniProt P41145); assay: OPRKappa 1 Tango B-Arrestin Assay, antagonist mode (Tango OPRK1-bla U2OS cells, U50488 EC80 challenge); type: cell-based; conditions: for Selectivity (MOR/KOR): Kappa selectivity, MOR IC50 / KOR IC50; for IC50: antagonist mode, Tango OPRK1-bla U2OS cells, 6 nM U50488 challenge
T1 construct: host or cells: U2OS (Tango OPRK1-bla U2OS)
Method in brief: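 Tango OPRK1-bla U2OS cells, β-arrestin recruitment read as β-lactamase FRET (CCF4-AM, 460/590 nm emission). Compounds, 10-point 1:3 series from nominal 10 µM in quadruplicate, preincubated 30 min at 37 °C, then challenged with U50488 at 6 nM final (EC80) for 4 h; percent inhibition from median ratio.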

mu opioid receptor (MOR) = target: T2, mu opioid receptor (MOR) (Homo sapiens, UniProt P35372); assay: OPRMu1 Discover X β-arrestin Assay, antagonist mode (U2OS cells, DAMGO EC80 challenge); type: cell-based
T2 construct: host or cells: U2OS (Discover X OPRMu1-U2OS, PathHunter)
Method in brief: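 PathHunter U2OS cells with β-gal fragment-complementation readout for β-arrestin recruitment to OPRMu1. Cells were preincubated with compound (10-point, 1:3 series from nominal 10 micromolar) for 30 min at 37 °C, then challenged with 303 nM DAMGO (EC80) for 3 h. Luminescence gave percent inhibition.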

T2 sequence (P35372 whole entry): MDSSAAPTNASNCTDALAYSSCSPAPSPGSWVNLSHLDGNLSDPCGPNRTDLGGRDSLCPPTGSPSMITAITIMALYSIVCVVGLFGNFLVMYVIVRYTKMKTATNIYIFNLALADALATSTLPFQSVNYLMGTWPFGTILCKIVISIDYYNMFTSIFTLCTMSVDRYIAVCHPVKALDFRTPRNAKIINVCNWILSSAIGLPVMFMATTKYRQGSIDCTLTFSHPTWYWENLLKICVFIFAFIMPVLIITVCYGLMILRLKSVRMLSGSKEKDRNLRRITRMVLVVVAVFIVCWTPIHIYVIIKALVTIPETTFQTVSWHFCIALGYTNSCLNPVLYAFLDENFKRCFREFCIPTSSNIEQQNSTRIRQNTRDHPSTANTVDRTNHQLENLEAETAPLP
T1 sequence (P41145 whole entry): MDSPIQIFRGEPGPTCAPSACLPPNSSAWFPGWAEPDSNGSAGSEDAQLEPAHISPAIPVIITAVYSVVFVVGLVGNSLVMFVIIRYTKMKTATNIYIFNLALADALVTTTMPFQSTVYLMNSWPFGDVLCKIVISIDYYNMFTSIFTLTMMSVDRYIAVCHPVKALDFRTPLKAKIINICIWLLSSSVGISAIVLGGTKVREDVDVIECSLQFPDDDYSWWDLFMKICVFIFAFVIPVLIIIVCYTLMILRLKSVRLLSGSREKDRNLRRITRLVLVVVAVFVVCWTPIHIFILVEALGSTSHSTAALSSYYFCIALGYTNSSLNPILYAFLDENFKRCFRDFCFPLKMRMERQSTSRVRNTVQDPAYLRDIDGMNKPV

IC50 [1] | IC50 (mu opioid receptor (MOR)) | SMILES | Selectivity (MOR/KOR) [1]
10 to 100 nM | > 1000 nM | CCc1cc(F)c2nc(N3CCC(OCCN4CCCC4)CC3)c(-c3nc(C)no3)c(C)c2c1 [Compound 187] | +++ (between 100- to 1000-fold selective)
10 to 100 nM | > 1000 nM | CCc1cc(F)c2nc(N3CCN(C(=O)[C@@H]4CCCCN4C)C[C@H]3C)c(-c3nc(C)no3)c(C)c2c1 [Compound 188] | +++ (between 100- to 1000-fold selective)
1 to 10 nM | > 1000 nM | CCc1cc(F)c2nc(N3CCN(C(=O)[C@H]4CCCCN4C)C[C@H]3C)c(-c3nc(C)no3)c(C)c2c1 [Compound 189] | ++++ (more than 1000-fold selectivity over MOR)
1 to 10 nM | 100 to 1000 nM | CCc1cc(F)c2nc(N3CCN(C(=O)CCN4CCCC4)C[C@H]3C)c(-c3nc(C)no3)c(C)c2c1 [Compound 190] | ++ (between 10- and 100-fold selectivity)
< 1 nM | > 1000 nM | CCc1cc(F)c2nc(N3CC[C@@H](N[C@@H]4CCOC4)[C@@H](F)C3)c(-c3ccn(C)n3)c(C)c2c1 [Compound 192, (3S,4R)-1-(6-ethyl-8-fluoro-4-methyl-3-(1-methyl-1H-pyrazol-3-yl)quinolin-2-yl)-3-fluoro-N—((R)-tetrahydrofuran-3-yl)piperidin-4-amine] | ++++ (more than 1000-fold selectivity over MOR)
10 to 100 nM | > 1000 nM | CCc1cc(F)c2nc(N3CCN(C(C)C4CCOCC4)C[C@H]3C)c(-c3nc(C)no3)c(C)c2c1 (stereo partly drawn) [Compound 199, 5-(6-ethyl-8-fluoro-4-methyl-2-((2R)-2-methyl-4-(1-(tetrahydro-2H-pyran-4-yl)ethyl)piperazin-1-yl)quinolin-3-yl)-3-methyl-1,2,4-oxadiazole] | ++++ (more than 1000-fold selectivity over MOR)
1 to 10 nM | 100 to 1000 nM | CCc1cc(F)c2nc(N3CCN(C(=O)[C@H](C)N4CCCC4)C[C@H]3C)c(-c3nc(C)no3)c(C)c2c1 [Compound 201] | +++ (between 100- to 1000-fold selective)
10 to 100 nM | > 1000 nM | CCc1cc(F)c2nc(N3CCN(C[C@@H]4CCOC4)C[C@H]3C)c(-c3nc(C)no3)c(C)c2c1 [Compound 203] | +++ (between 100- to 1000-fold selective)
< 1 nM | 100 to 1000 nM | CCc1cc(F)c2nc(N3CC[C@@H](NC[C@@H]4CCOC4)[C@@H](F)C3)c(-c3ccn(C)n3)c(C)c2c1 [Compound 204] | ++++ (more than 1000-fold selectivity over MOR)
1 to 10 nM | > 1000 nM | CCc1cc(F)c2nc(N3CCN(C(=O)[C@H]4CC(F)(F)CCN4C)C[C@H]3C)c(-c3nc(C)no3)c(C)c2c1 [Compound 205, ((R)-4,4-difluoro-1-methylpiperidin-2-yl)((R)-4-(6-ethyl-8-fluoro-4-methyl-3-(3-methyl-1,2,4-oxadiazol-5-yl)quinolin-2-yl)-3-methylpiperazin-1-yl)methanone] | +++ (between 100- to 1000-fold selective)
1 to 10 nM | > 1000 nM | CCc1cc(F)c2nc(N3CCN(CC4(O)CCOCC4)C[C@H]3C)c(-c3nc(C)no3)c(C)c2c1 [Compound 206] | ++++ (more than 1000-fold selectivity over MOR)

The next lines start with the compound.

SMILES | IC50 [1] | IC50 (mu opioid receptor (MOR)) | Selectivity (MOR/KOR) [1]
CCc1cc(F)c2nc(N3CCN(C(=O)[C@H](C)N4CCCC4)C[C@H]3C)c(-c3nc(C)no3)c(C)c2c1 [Compound 191] | 1 to 10 nM | > 1000 nM | ++++ (more than 1000-fold selectivity over MOR)
CCc1cc(F)c2nc(N3CC[C@@H](N[C@H]4CCOC4)[C@@H](F)C3)c(-c3ccn(C)n3)c(C)c2c1 [Compound 193, (3S,4R)-1-(6-ethyl-8-fluoro-4-methyl-3-(1-methyl-1H-pyrazol-3-yl)quinolin-2-yl)-3-fluoro-N—((S)-tetrahydrofuran-3-yl)piperidin-4-amine] | < 1 nM | > 1000 nM | ++++ (more than 1000-fold selectivity over MOR)
CCc1cc(F)c2nc(N3CC[C@H](N[C@@H]4CCOC4)[C@H](F)C3)c(-c3ccn(C)n3)c(C)c2c1 [Compound 194, (3R,4S)-1-(6-ethyl-8-fluoro-4-methyl-3-(1-methyl-1H-pyrazol-3-yl)quinolin-2-yl)-3-fluoro-N—((R)-tetrahydrofuran-3-yl)piperidin-4-amine] | 1 to 10 nM | > 1000 nM | +++ (between 100- to 1000-fold selective)
CCc1cc(F)c2nc(N3CC[C@H](N[C@@H]4CCOC4)[C@@H](F)C3)c(-c3ccn(C)n3)c(C)c2c1 [Compound 195, (3S,4S)-1-(6-ethyl-8-fluoro-4-methyl-3-(1-methyl-1H-pyrazol-3-yl)quinolin-2-yl)-3-fluoro-N—((R)-tetrahydrofuran-3-yl)piperidin-4-amine] | 1 to 10 nM | > 1000 nM | ++++ (more than 1000-fold selectivity over MOR)
CCc1cc(F)c2nc(N3CC[C@@H](N[C@@H]4CCOC4)[C@H](F)C3)c(-c3ccn(C)n3)c(C)c2c1 [Compound 196, (3R,4R)-1-(6-ethyl-8-fluoro-4-methyl-3-(1-methyl-1H-pyrazol-3-yl)quinolin-2-yl)-3-fluoro-N—((R)-tetrahydrofuran-3-yl)piperidin-4-amine] | 1 to 10 nM | > 1000 nM | +++ (between 100- to 1000-fold selective)
CCc1cc(F)c2nc(N3CCN(C(=O)[C@H]4CC(F)(F)CCN4)C[C@H]3C)c(-c3nc(C)no3)c(C)c2c1 [Compound 200] | 1 to 10 nM | > 1000 nM | +++ (between 100- to 1000-fold selective)
CCc1cc(F)c2nc(N3CCN(C[C@H]4CCOC4)C[C@H]3C)c(-c3nc(C)no3)c(C)c2c1 [Compound 202] | 1 to 10 nM | > 1000 nM | ++++ (more than 1000-fold selectivity over MOR)
CCc1cc(F)c2nc(N3CCN(CC4(F)CCOCC4)C[C@H]3C)c(-c3nc(C)no3)c(C)c2c1 [Compound 207, (R)-5-(6-ethyl-8-fluoro-2-(4-((4-fluorotetrahydro-2H-pyran-4-yl)methyl)-2-methylpiperazin-1-yl)-4-methylquinolin-3-yl)-3-methyl-1,2,4-oxadiazole] | 1 to 10 nM | > 1000 nM | ++++ (more than 1000-fold selectivity over MOR)
